# No end group written: not given here.
# Assays:
# [1] = test system: H460, H1299 and CRL5889 NSCLC cells; experiment: CellTiter-Glo 2.0 luminescent cell viability after IR, NSCLC cells; format: cell-based; conditions: CellTiter-Glo 2.0, 48 h post-irradiation, three independent experiments
# Protocol: (§1) H1299, CRL5889 and H460 cells were cultured in Roswell Park Memorial Institute (RPMI) 1640 medium (Life Technologies) containing 10% foetal bovine serum (Thermo Fisher Scientific). Human bronchial epithelial cells (HBEC3-KT) were maintained in keratinocyte serum-free medium supplemented with epidermal growth factor and bovine pituitary extract (Life Technologies). The histology features and origin of all cell lines used have been previously described. Cell lines were authenticated using STR profiling. Cells were grown in a humidified incubator at 37 °C/5% CO2 atmosphere. All cell lines were verified to be free of mycoplasma contamination.
# (§2) Irradiations were done at room temperature using a ^137Cs source (Gammacell 40 Exactor [MDS Nordion]; dose rate 1.1 Gy/min). […]
# (§3) For siRNA transfections, cells were transfected with negative control or COMMD4 siRNA #2 (CCAUGUCCCUCUCAGCAGA[dT][dT] MISSION® siRNA, Sigma-Aldrich) using RNAiMax (Life Technologies) as previously described and samples were analysed 48 to 72 h post-transfection. […] Cells were mock-transfected, or transfected with FLAG-H2BWT/FLAG-H2BMUT1, or COMMD4-FLAG/A70K with FuGENE® HD (Promega) using the manufacturer’s protocol and analysed 24 h post-transfection.
# (§4) A CellTiter-Glo 2.0 Luminescent assay (Promega Corporation) was carried out as previously described. […] Luminescence was measured using a PHERAstar FSX detection system (BMG Labtech). […]
# HBEC3-KT cells [2] = experiment: CellTiter-Glo 2.0 luminescent cell viability after IR, HBEC3-KT cells; format: cell-based, Human; conditions: CellTiter-Glo 2.0, 48 h post-irradiation, three independent experiments
# Protocol: as §1, §2, §3, §4
# NSCLC cells = experiment: Immunofluorescence γH2AX and MDC1 foci, NSCLC cells; format: cell-based; conditions: 6 Gy IR, 0.5 to 2 h post-IR, 50 cells per condition, three independent experiments
# Protocol: (§5) For siRNA transfections, cells were transfected with negative control or COMMD4 siRNA #2 (CCAUGUCCCUCUCAGCAGA[dT][dT] MISSION® siRNA, Sigma-Aldrich) using RNAiMax (Life Technologies) as previously described and samples were analysed 48 to 72 h post-transfection. The H2B wild-type (FLAG-H2BWT) and mutant (FLAG-H2BMUT1) expression constructs were generated with the 10-amino acid peptide and the corresponding mutant cloned into the expression vector pCDNA3.1/(+)-N-DYK containing an N-terminal FLAG tag and a C-terminal nuclear localisation signal (AAKRVKLDS) (GenScript). A70K FLAG-COMMD4 expression construct was generated by mutating the corresponding COMMD4-FLAG construct to harbour an A70K mutation (GenScript). Cells were mock-transfected, or transfected with FLAG-H2BWT/FLAG-H2BMUT1, or COMMD4-FLAG/A70K with FuGENE® HD (Promega) using the manufacturer’s protocol and analysed 24 h post-transfection.
# NSCLC and control cells transfected with siRNA or H2B plasmids were grown in optical glass bottom 96-well plates (Cellvis). Post-treatment, cells were pre-extracted with ice-cold extraction buffer (20 mM HEPES (pH 8), 20 mM NaCl, 5 mM MgCl2, 1 mM ATP, 0.5% NP40), to remove the soluble proteins and processed as previous. Images were captured using a Delta Vision PDV microscope 100x/1.42 Oil objective (Applied Precision, Inc). All immunofluorescence figures were assembled using Adobe Photoshop. High-content microscopy was performed using the InCell Analyzer 6500 Imaging System (GE Healthcare Life Sciences). Images were analysed using the InCarta Image Analysis software (GE Healthcare Life Sciences) where a minimum of 50 nuclei were quantified per experiment.
# Fig. 4 Induction of DSBs in NSCLC and control cells. a Immunofluorescence staining of H1299 NSCLC cells transfected with control or COMMD4 siRNA #2 and FLAG-H2BWT or FLAG-H2BMUT1 is shown. […]
# independent experiments where 50 cells were quantified per condition. γH2AX is shown in […]
# mean ± SD from three independent experiments where 50 cells were quantified per condition.
# HBEC3-KT cells [3] = experiment: Mitotic catastrophe (emerin and phalloidin staining), HBEC3-KT cells; format: cell-based, Human; conditions: 100 cells counted
# Protocol: as §5, with “A70K FLAG-COMMD4 expression construct was generated by mutating the corresponding COMMD4-FLAG construct to harbour an A70K mutation (GenScript).” left out
# NSCLC cells were grown in 96-well plates as above and stained with anti-emerin antibody and phalloidin. Mitotic catastrophe was scored as previous. A minimum of 100 cells for each experimental condition were assessed to determine the percentage of aberrant nuclei.
# As previously determined, in this study, we used two markers to determine mitotic catastrophe: emerin staining of the nuclear envelope and phalloidin staining of the F-actin cytoskeleton. […] We subsequently measured apoptosis by staining for Annexin V and propidium iodide via flow cytometry in FLAG-H2B WT, FLAG-H2BMUT1 and mock-transfected control and NSCLC cells (Fig. 5c, d). […]
substance,measurement,setting,value
FLAG-H2BWT: 10-amino acid peptide cloned into expression vector containing an N-terminal FLAG tag and a C-terminal nuclear localisation signal ({FLAG}-SFVNDIFERIAAKRVKLDS),sensitivity to ionising radiation (luminescent viability),[1],hypersensitive to IR compared to FLAG-H2BMUT1 and mock-transfected cells
same,sensitivity to ionising radiation (luminescent viability),HBEC3-KT cells [2],not hypersensitive
same,γH2AX and MDC1 (DNA repair) foci,NSCLC cells,significantly more DNA repair foci
same,aberrant nuclei / mitotic catastrophe,HBEC3-KT cells [3],"also underwent mitotic catastrophe, but to a lesser extent than the NSCLC cell lines"

# Source: article PMC10703884, “Targeting the COMMD4–H2B protein complex in lung cancer” (British Journal of Cancer, 2023)
